Assay results taken from US20120027687A1, “FATTY ACID PROTEIN KINASE C ACTIVATORS AND ANTICOAGULANT FOR THE TREATMENT OF STROKE” (priority 2010, published 2012).

Assays:
[1] = system: SH-SY5Y neuroblastoma cells; assay: Cell survival and proliferation (alamar Blue, CyQuant); assay type: cell-based, human; conditions: alamar Blue and CyQuant staining
Description: (§1) Aβ Measurement and Cell Viability Assay. Aβ was measured using an Aβ 1-42 human fluorimetric ELISA kit (Invitrogen) according to the manufacturer's instructions. Results were measured in a Biotek Synergy HT microplate reader. AlamarBlue and CyQuant NF (Invitrogen) according to the manufacturer's instructions.

[2] = system: Endothelin-converting enzyme (ECE); assay: Endothelin-converting enzyme (ECE) activity in neuroblastoma cells; assay type: cell-based, human; conditions: bryostatin 0.27 nM, BR-101 1 μM, BR-111 1 μM
Description: ECE assay. […] neuroblastoma cells were incubated with bryostatin (0.27 nM), BR-101 (DCP-LA) (1 μM), and BR-111 (DHA-CP6) (1 μM). Endothelin-converting enzyme (ECE) was measured fluorimetrically using the method of Johnson and Ahn (Anal. Biochem. (2000), vol. 286, pp. 112-118). A sample of cell homogenate (20 μl) was incubated in 50 mM MES-KOH, pH 6.0, 0.01% C12E10 (polyoxyethylene-10-lauryl ether), and 15 μM McaBK2 (7-Methoxycoumarin-4-acetyl [Ala7-(2,4-Dinitrophenyl)Lys9]-bradykinin trifluoroacetate salt) (Sigma-Aldrich). After 60 min at 37° C., the reaction was quenched by adding trifluoroacetic acid to 0.5%. The sample was diluted to 1.4 ml with water and the fluorescence was measured at ex=334 nm, em=398 nm.

Aβ [3] = assay: Aβ production in N2a neuroblastoma cells transfected with human APPSwe/PSID; assay type: cell-based, mouse; conditions: 24 hours
Description: (§2) Cell culture. Rat hippocampal H19-7/IGF-IR cells (ATCC, Manassas, Va.) were plated onto poly-L-lysine coated plates and grown at 35° C. in DMEM/10% FCS for several days until about 50% coverage was obtained. The cells were then induced to differentiate into a neuronal phenotype by replacing the medium with 5 ml N2 medium containing 10 ng/ml basic fibroblast growth factor at 39° C. and grown in T-75 flasks at 37° C. Human SH-SY5Y neuroblastoma cells (ATCC) were cultured in 45% F12K/45% MEM/10% FCS. Mouse N2A neuroblastoma cells were cultured in DMEM/10% FCS without glutamine. Rat hippocampal neurons from 18-day-old embryonic Sprague Dawley rat brains were plated on 12- or 96-well plates coated with poly-D-lysine (Sigma-Aldrich, St. Louis, Mo.) in B-27 neurobasal medium containing 0.5 mM glutamine and 25 μM glutamate (Invitrogen, Carlsbad, Calif.) and cultured for three days in the medium without glutamate. The neuronal cells were grown under 5% CO2 in an incubator maintained at 37° C. for 14 days.
as §1
To measure the effects of PKCε activation on Aβ production, mouse neuro2a (N2a) neuroblastoma cells transfected with human APPSwe/PSID were used, which produce large quantities of Aβ. Petanceska et al., J. Neurochem. (1996), vol. 74, pp. 1878-1884. […] With bryostatin, which activates PKC by binding to the diacylglycerol-binding site, the inhibition was biphasic with concentrations of 20 nM or higher producing no net effect. This may be explained by the ability of this class of PKC activators to downregulate PKC when used at high concentrations.

PKCε = biological target: T1, PKCε (Homo sapiens, UniProt Q02156); assay: PKC assay with purified PKCε; assay type: biochemical
T1 construct: purchased Calbiochem
T1 sequence (Q02156 1-737): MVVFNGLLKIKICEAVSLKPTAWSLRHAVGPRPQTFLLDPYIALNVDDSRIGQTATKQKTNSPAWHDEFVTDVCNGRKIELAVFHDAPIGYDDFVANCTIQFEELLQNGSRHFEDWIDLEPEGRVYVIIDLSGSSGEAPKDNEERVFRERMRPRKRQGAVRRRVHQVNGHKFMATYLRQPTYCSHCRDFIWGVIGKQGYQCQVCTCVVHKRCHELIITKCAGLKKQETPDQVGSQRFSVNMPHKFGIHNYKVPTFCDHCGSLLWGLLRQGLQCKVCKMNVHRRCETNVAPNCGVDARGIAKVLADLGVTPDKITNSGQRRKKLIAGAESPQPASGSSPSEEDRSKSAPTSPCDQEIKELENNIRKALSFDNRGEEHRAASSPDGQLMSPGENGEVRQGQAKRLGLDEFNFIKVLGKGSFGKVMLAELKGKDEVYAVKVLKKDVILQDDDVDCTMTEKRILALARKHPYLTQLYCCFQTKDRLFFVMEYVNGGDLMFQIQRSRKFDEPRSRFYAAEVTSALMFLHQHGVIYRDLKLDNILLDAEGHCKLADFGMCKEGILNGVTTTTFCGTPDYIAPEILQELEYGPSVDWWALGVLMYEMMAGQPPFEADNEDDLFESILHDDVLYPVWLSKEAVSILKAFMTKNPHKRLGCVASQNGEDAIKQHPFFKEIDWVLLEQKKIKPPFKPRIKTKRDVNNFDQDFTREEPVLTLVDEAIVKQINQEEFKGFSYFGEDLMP
Description: PKC assay. […] 0.5 micro Ci[^γ32P]ATP was added. […] The reaction was stopped by spotting the reaction mixtures on 1×2 cm strips of cellulose phosphate paper (Whatman P81) and immediately washing twice for 1 hr in 0.5% H3PO4. The cellulose phosphate strips were counted in a scintillation counter. In some experiments, phosphatidylserine, diacylglycerol, and/or calcium were removed. […]
To determine their PKC isozyme specificity, fatty acid derivatives were preincubated with purified PKC for five minutes and the PKC activity was measured radiometrically.

TACE = TACE activity in neuronal cells; assay type: cell-based, human, mouse; conditions: SH-SY5Y cells, N2a cells, primary neurons from rat hippocampus
Description: TACE Assay. TACE was measured by incubating 5 μl cell homogenate, 3 μl buffer (50 mM Tris-HCl 7.4 plus 25 mM NaCl plus 4% glycerol), and 1 μl of 100 μM TACE substrate (Aβz-[…]-DPa) (Calbiochem) for 20 min at 37° C. 1.5-ml polypropylene centrifuge tubes. Jin et al., Anal. Biochem. (2002), vol. 302, pp. 269-275. The reaction was stopped by cooling to 4° C. The samples were diluted to 1 ml and the fluorescence was rapidly measured (ex=320 nm, em=420 nm) in a Spex Fluorolog 2 spectrofluorometer.

Aβ [4] = assay: Degradation of exogenously applied Aβ in SH-SY5Y cells; assay type: cell-based, human; conditions: 0.01 μM to 10 μM; 100 nM exogenous Aβ-42; 24 hours
Description: as §2, §1
This concentration of Aβ is too low to produce measurable toxicity or cell death. […]

protein kinase C = conditions: (−)-enantiomer; read-out: potency (EC50); cited from earlier work

Compound	effect on cell survival [1]	effect on proliferation [1]	ECE activity [2]	levels of intracellular Aβ (Aβ [3]; various concentrations)	levels of secreted Aβ (Aβ [3]; various concentrations)	concentration dependence of Aβ inhibition (Aβ [3]; fatty acid derivatives up to 10 μM to 100 μM)	concentration needed to activate PKC, times lower than for BR-101 (DCP-LA) (PKCε)	effect on purified PKCε (FIG. 7, FIG. 8) (PKCε; preincubated five minutes, radiometric)	TACE activity (TACE)	reduction of cellular levels of Aβ (Aβ [4])	EC50 (protein kinase C)
CCC1CC1CC1CC1CC1CC1CC1CC1CC1CC1CC1CC1CCC(=O)OC (centres unmarked) [BR-111, methyl-3-(2-((2-((2-((2-((2-((2-ethylcyclopropyl)methyl)cyclopropyl)methyl)cyclopropyl)methyl)-cyclopropyl)methyl)cyclopropyl)methyl)cyclopropyl)propanoate]	no effect	no effect	sustained increase	markedly reduced	markedly reduced	monotonically increasing inhibition	approximately 100 times	activated	small increases	45%-63%	
CCCCCCCCc1ccc2c3c(c[nH]c13)C[C@@H](CO)NC(=O)[C@H](C(C)C)N2C [Octylindolactam V]											0.029 µM
